Measurements: ChEMBL document CHEMBL1131910, “Exploratory solid-phase synthesis of factor Xa inhibitors: discovery and application of p3-heterocyclic amides as novel types of non-basic arginine surrogates” (Bioorg Med Chem Lett, 1999)

How the values were obtained:
Prothrombin [1] = target: T1, Prothrombin (Homo sapiens, UniProt P00734); assay: In vitro inhibition of human Thrombin (FIIa).
Serine protease 1 [2] = target: T2, Serine protease 1 (Homo sapiens, UniProt P07477); assay: In vitro inhibition of human trypsin.
T2 sequence (P07477 whole entry): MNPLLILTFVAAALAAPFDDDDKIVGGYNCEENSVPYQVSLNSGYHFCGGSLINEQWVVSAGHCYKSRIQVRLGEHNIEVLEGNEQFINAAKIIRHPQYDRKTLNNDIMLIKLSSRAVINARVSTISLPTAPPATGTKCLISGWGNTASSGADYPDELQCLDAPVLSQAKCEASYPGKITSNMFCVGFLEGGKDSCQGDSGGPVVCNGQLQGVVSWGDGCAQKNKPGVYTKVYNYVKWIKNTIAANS

Plasminogen [3] = target: T3, Plasminogen (Homo sapiens, UniProt P00747); assay: In vitro inhibition of human thrombolytic protease Plasmin.
T3 sequence (P00747 97-580 limits assumed): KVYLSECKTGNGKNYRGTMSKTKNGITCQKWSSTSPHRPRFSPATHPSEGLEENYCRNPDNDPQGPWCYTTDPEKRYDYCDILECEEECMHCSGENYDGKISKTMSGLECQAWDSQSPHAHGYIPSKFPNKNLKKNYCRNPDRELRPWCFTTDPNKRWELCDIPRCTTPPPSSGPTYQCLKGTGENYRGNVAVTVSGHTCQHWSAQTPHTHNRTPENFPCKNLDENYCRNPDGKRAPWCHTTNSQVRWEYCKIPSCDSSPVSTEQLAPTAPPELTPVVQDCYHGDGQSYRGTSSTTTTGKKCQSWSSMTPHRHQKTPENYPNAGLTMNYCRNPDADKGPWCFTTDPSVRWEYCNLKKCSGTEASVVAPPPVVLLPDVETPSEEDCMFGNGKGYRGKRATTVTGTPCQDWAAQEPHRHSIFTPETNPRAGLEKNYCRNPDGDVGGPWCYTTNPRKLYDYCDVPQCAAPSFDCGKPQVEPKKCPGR
T3 sequence (P00747 581-810 limits assumed): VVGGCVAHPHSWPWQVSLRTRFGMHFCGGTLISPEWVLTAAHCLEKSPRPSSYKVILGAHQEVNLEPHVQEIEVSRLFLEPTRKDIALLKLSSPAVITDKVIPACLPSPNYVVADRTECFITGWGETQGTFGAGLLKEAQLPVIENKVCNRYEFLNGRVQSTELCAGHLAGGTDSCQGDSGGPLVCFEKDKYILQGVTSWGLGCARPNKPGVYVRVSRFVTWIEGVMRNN

Coagulation factor X [4] = target: T4, Coagulation factor X (Homo sapiens, UniProt P00742); assay: In vitro inhibition of human Factor Xa.
T4 sequence (P00742 41-179 limits assumed): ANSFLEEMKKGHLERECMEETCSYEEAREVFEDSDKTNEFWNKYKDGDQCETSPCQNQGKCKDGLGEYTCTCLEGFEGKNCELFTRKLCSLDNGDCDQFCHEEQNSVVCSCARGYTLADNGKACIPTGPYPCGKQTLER
T4 sequence (P00742 235-488 limits assumed): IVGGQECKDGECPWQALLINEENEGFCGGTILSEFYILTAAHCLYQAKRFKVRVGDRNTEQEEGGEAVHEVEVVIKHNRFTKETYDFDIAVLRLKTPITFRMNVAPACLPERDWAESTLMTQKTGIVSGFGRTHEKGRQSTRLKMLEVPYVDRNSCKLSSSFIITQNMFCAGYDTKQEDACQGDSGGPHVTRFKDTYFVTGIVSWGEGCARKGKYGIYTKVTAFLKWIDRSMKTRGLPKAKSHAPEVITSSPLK

Prothrombin [5] = target: T1, Prothrombin; assay: In vitro inhibition against human Thrombin ( FIIa) was evaluated; Inactive
Plasminogen [6] = target: T3, Plasminogen; assay: In vitro inhibition against human thrombolytic protease Plasmin was evaluated; Inactive
Coagulation factor X [7] = target: T4, Coagulation factor X; assay: In vitro inhibition against human Factor Xa (FXa) was evaluated; Inactive
Serine protease 1 [8] = target: T2, Serine protease 1; assay: In vitro inhibition against human trypsin was evaluated; Inactive

| SMILES | IC50 (Prothrombin [1]) [nM] | IC50 (Serine protease 1 [2]) [nM] | IC50 (Plasminogen [3]) [nM] | IC50 (Coagulation factor X [4]) [nM] | IC50 (Prothrombin [5]) | IC50 (Plasminogen [6]) | IC50 (Coagulation factor X [7]) | IC50 (Serine protease 1 [8]) |
| --- | --- | --- | --- | --- | --- | --- | --- | --- |
| N=C(N)N1CCC[C@H](NC(=O)CNC(=O)[C@@H](CCNC(=O)c2nccc3ccccc23)NC(=O)OCc2ccccc2)C1O (some centres undefined) | > 2500 | > 2500 | > 2500 | 313 |  |  |  |  |
| Cc1cnc(C(=O)NCC[C@@H](NC(=O)OCc2ccccc2)C(=O)NCC(=O)N[C@H]2CCCN(C(=N)N)C2O)cn1 (some centres undefined) | > 2500 | 40.3 | > 2500 | 232 |  |  |  |  |
| N=C(N)N1CCC[C@H](NC(=O)CNC(=O)[C@@H](CCNC(=O)c2cnccn2)NC(=O)OCc2ccccc2)C1O (some centres undefined) | 2500 | 30 | 2030 | 106 |  |  |  |  |
| N=C(N)N1CCC[C@H](NC(=O)CNC(=O)[C@@H](CCNC(=O)c2nccc3ccccc23)NS(=O)(=O)Cc2ccccc2)C1O (some centres undefined) | > 2500 | 97.8 | 730 | 4.9 |  |  |  |  |
| N=C(N)NCCCC(NS(=O)(=O)Cc1ccccc1)C(=O)NCC(=O)N[C@H]1CCCN(C(=N)N)C1O (some centres undefined) | > 2500 | 75 |  | 0.7 |  |  |  |  |
| N=C(N)N1CCC[C@H](NC(=O)CNC(=O)[C@@H](CCNC(=O)c2ccc3ccccc3n2)NS(=O)(=O)Cc2ccccc2)C1O (some centres undefined) | 1270 | 59.2 | 1440 | 44.4 |  |  |  |  |
| N=C(N)N1CCC[C@H](NC(=O)CNC(=O)[C@@H](CNC(=O)c2cnccn2)NS(=O)(=O)Cc2ccccc2)C1O (some centres undefined) | > 2500 | 152 | 1480 | 311 |  |  |  |  |
| N=C(N)N1CCC[C@H](NC(=O)CNC(=O)[C@@H](CCNC(=O)c2cncc(Br)c2)NC(=O)OCc2ccccc2)C1O (some centres undefined) | > 2500 | > 31.2 | > 2500 | 313 |  |  |  |  |
| N=C(N)N1CCC[C@H](NC(=O)CNC(=O)[C@@H](CCNC(=O)c2cnc3ccccc3c2)NC(=O)OCc2ccccc2)C1O (some centres undefined) | > 2500 | 20.4 | 1140 | 169 |  |  |  |  |
| N=C(N)N1CCC[C@H](NC(=O)CNC(=O)[C@@H](CCNC(=O)c2cnnc3ccccc23)NS(=O)(=O)Cc2ccccc2)C1O (some centres undefined) | 1770 | 4.21 | 700 | 5.6 |  |  |  |  |
| N=C(N)N1CCC[C@H](NC(=O)CNC(=O)[C@@H](CCNC(=O)c2cn[nH]c2)NC(=O)OCc2ccccc2)C1O (some centres undefined) | > 2500 | 74.5 | 3270 | 346 |  |  |  |  |
| N=C(N)N1CCC[C@H](NC(=O)CNC(=O)[C@@H](CCCNC(=O)c2cnccn2)NS(=O)(=O)Cc2ccccc2)C1O (some centres undefined) | 2500 | 324 | 673 | 15 |  |  |  |  |
| N=C(N)N1CCC[C@H](NC(=O)CNC(=O)[C@@H](CCNC(=O)c2nc3ccccc3nc2O)NS(=O)(=O)Cc2ccccc2)C1O (some centres undefined) | > 2500 |  |  | > 2500 |  | Not Active |  | Not Active |

Second part, the compound after the results:

| IC50 (Prothrombin [1]) [nM] | IC50 (Serine protease 1 [2]) [nM] | IC50 (Plasminogen [3]) [nM] | IC50 (Coagulation factor X [4]) [nM] | IC50 (Prothrombin [5]) | IC50 (Plasminogen [6]) | IC50 (Coagulation factor X [7]) | IC50 (Serine protease 1 [8]) | SMILES |
| --- | --- | --- | --- | --- | --- | --- | --- | --- |
| 537 | 111 | 250 | 10.6 |  |  |  |  | N=C(N)N1CCC[C@H](NC(=O)CNC(=O)[C@@H](CCNC(=O)c2cnc3ccccc3c2)NS(=O)(=O)Cc2ccccc2)C1O (some centres undefined) |
| > 2500 | 160 | 1060 | 10.6 |  |  |  |  | N=C(N)N1CCC[C@H](NC(=O)CNC(=O)[C@@H](CCNC(=O)c2cncc(Br)c2)NS(=O)(=O)Cc2ccccc2)C1O (some centres undefined) |
| > 2500 | 561 | 2500 | 79.1 |  |  |  |  | N=C(N)N1CCC[C@H](NC(=O)CNC(=O)[C@@H](CCNC(=O)c2cccnc2)NS(=O)(=O)Cc2ccccc2)C1O (some centres undefined) |
|  |  |  |  | Not Active | Not Active | Not Active | Not Active | N=C(N)N1CCC[C@H](NC(=O)CNC(=O)[C@@H](CCNC(=O)c2ccccc2)NS(=O)(=O)Cc2ccccc2)C1O (some centres undefined) |
| > 2500 | 223 | 1140 | 20.5 |  |  |  |  | N=C(N)N1CCC[C@H](NC(=O)CNC(=O)[C@@H](CCNC(=O)c2ccccn2)NS(=O)(=O)Cc2ccccc2)C1O (some centres undefined) |
| > 2500 | 26.6 | 367 | 6.1 |  |  |  |  | N=C(N)N1CCC[C@H](NC(=O)CNC(=O)[C@@H](CCNC(=O)c2ccc(O)nc2)NS(=O)(=O)Cc2ccccc2)C1O (some centres undefined) |
| > 2500 | 166 | 521 | 5 |  |  |  |  | N=C(N)N1CCC[C@H](NC(=O)CNC(=O)[C@@H](CCNC(=O)c2cnccn2)NS(=O)(=O)Cc2ccccc2)C1O (some centres undefined) |
